From PubChem BioAssay (NCI)
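Grown in 96-well plates, cells were treated for 48 hours with each compound at five concentrations. Insufficient inhibition: endpoint recorded as highest concentration tested. GI50: concentration for 50% inhibition of growth. TGI is the concentration that stops growth completely.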

The molecules below were run on SN12C renal (assay: DTP human tumour cell line panel, 48 h).

SMILES	TGI [µM]	GI50 [nM]
Nc1ccccc1C(=O)/C=C/c1c(O)ccc2ccccc12	> 100	–
CC(C)c1[nH]nc2c1N=C(c1ccccc1Cl)c1cc([N+](=O)[O-])ccc1N2	> 25	8170
CCC1CN2CCc3cc(OC)c(OC)cc3C2CC1CC1c2cc(OC)c(OC)cc2CCN1C(=O)C1CCCN1 (configuration not stated)	> 100	–
CC(C(=O)c1ccc(Cl)cc1)/C(=N/NC(=O)NN)C(=O)Nc1cccc(C(F)(F)F)c1 (configuration not stated)	> 100	–
CCOP(=O)(OCC)C(C(=O)OC)C(=O)C(=O)Nc1ccc(Cl)cc1Cl (configuration not stated)	> 100	–
CC(C)=C1CCC(CN(C)C)C1=O (configuration not stated)	33.6	–
COc1cccc(/C=N/[N-]C(=O)c2ccncc2)c1[O-].COc1cccc(/C=N/[N-]C(=O)c2ccncc2)c1[O-].[O]=[U](=[O])([OH2+])[OH2+]	32.5	7150
CC(C)(C)c1ccc2c(c1)S(=O)(=O)Nc1ccc(Cl)cc1NS(=O)(=O)c1cc(C(C)(C)C)ccc1OCCOCCOCCO2	> 100	–
N#CC(=Nc1ccccc1N(C(=O)c1ccccc1)C(=O)c1ccccc1)c1ccccc1	> 100	–
COc1c(C)n(CCO)ccc1=O	> 100	–
COC(=O)C(=O)C(C(C)=O)C(=O)NCc1ccc(OC)c(OC)c1 (configuration not stated)	> 100	–
Nc1c(-c2ccccc2-c2c(N)[n+]([O-])c3ccccc3[n+]2[O-])[n+]([O-])c2ccccc2[n+]1[O-]	> 100	–
CCOC(=O)NC(=O)c1cn(C(CC)COC(=O)NCCCCCCNC(=O)OCC(CC)n2cc(C(=O)NC(=O)OCC)c(=O)[nH]c2=O)c(=O)[nH]c1=O (configuration not stated)	> 100	–
COc1ccc(-c2nc(-c3cc(OC)cc(OC)c3)[nH]c2-c2ccc(OC)cc2)cc1	> 100	> 100000
O=C(CC(=O)C1CCOC1=O)C(=O)Nc1cccc(Cl)c1 (configuration not stated)	> 100	–
CCN1c2ccccc2-c2c3c1cc(C)cc3c1ccccc1[n+]2CC	3.35	–
Cc1cccc(C2=C/C(=C(\SS/C(C(=O)c3ccc(OCC(=O)O)c(Cl)c3Cl)=C3\C=C(c4cccc(C)c4)SS3)C(=O)c3ccc(OCC(=O)O)c(Cl)c3Cl)SS2)c1	65.1	–
CC(=O)N1CCN(c2ccc(OCC3COC(Cn4ccnc4)(c4ccc(Cl)cc4Cl)O3)cc2)CC1 (configuration not stated)	> 100	–

SMILES	TGI [µM]	GI50 [nM]
CC1=C(C#N)C(=O)CC(c2ccc(Cl)cc2)N(C)N1 (configuration not stated)	> 100	–
Nc1nc(-c2ccc(Cl)c([N+](=O)[O-])c2)cs1	> 100	–
COc1cc(/C=C2\[C@H]3c4c(c(OC)c(C)c(OC)c4OC)CC(C(=O)N2Cc2ccccc2)N3C)c(OC)c(C)c1OC	33.1	–
CC1(C)CN=C(NN=C(/C=C/c2ccc(C(F)(F)F)cc2)/C=C/c2ccc(C(F)(F)F)cc2)NC1	3.33	1460
COc1cc(/C=C\c2cc(OC)c(OC)c(OC)c2)cc(N/C=C\C(=O)c2c[nH]c3ccccc23)c1OC	7.13	2440
CCCCCCCCCCNC(=O)CI	2.8	1210
Cc1cc(N/N=C/c2ccccn2)nc2ccccc12	17.3	368
O=C(N/C(=C\c1ccc([N+](=O)[O-])cc1)c1nc2ccccc2[nH]1)c1ccccc1	> 100	–
COC(=O)/C([Se]c1c(C)cc(C)cc1C)=C(/[Se]c1c(C)cc(C)cc1C)C(=O)OC	> 100	–
CC(C)(C)[Si](C)(C)OC1[C@@H](CNC(=O)NC(=O)CCl)O[C@@H](n2cnc3c(N)ncnc32)[C@H]1O[Si](C)(C)C(C)(C)C (some centres not stated)	1.88	821
NC(=O)C(=O)CC(=O)c1ccccc1NC1=CC(=O)C(=O)c2ccccc21	> 100	–
Cc1cc2c(c(C(N)=O)c1C)-c1ccccc1C2=O	> 100	–
COC(=O)/C(=N/O)C(C(=O)C=C(C)C)C(=O)C(=O)Nc1nc2ccc([N+](=O)[O-])cc2s1 (configuration not stated)	> 100	–
Cc1ccccc1C1=[N+]([O-])c2ccc(Cl)cc2C1=O	28.5	–
c1coc(-c2c3ccc(=[N+]4CCCCC4)cc-3oc3cc(N4CCCCC4)ccc23)c1	0.278	59.1
Cc1[nH]c2ccccc2c1C1Cc2ccccc2N1C(=O)C#Cc1ccc([N+](=O)[O-])cc1 (configuration not stated)	> 100	–
CCOC(=O)NC(=O)c1cn(C2CCCCC2)c(=O)[nH]c1=O	> 100	–
Cn1c(=O)nc2n(-c3cc(C(F)(F)F)cc(C(F)(F)F)c3)c3ccccc3nc-2c1=O	> 100	–

These molecules were tested on CAKI-1 renal (assay: DTP human tumour cell line panel, 48 h).

SMILES	GI50 [nM]	TGI [µM]
O=C1CCCN1c1ccccc1I(=O)=O	> 100000	> 100
Nc1ccccc1C(=O)/C=C/c1c(O)ccc2ccccc12	–	> 100
CC(C)c1[nH]nc2c1N=C(c1ccccc1Cl)c1cc([N+](=O)[O-])ccc1N2	2530	> 13.7
CCC1CN2CCc3cc(OC)c(OC)cc3C2CC1CC1c2cc(OC)c(OC)cc2CCN1C(=O)C1CCCN1 (configuration not stated)	–	> 100
CC(C(=O)c1ccc(Cl)cc1)/C(=N/NC(=O)NN)C(=O)Nc1cccc(C(F)(F)F)c1 (configuration not stated)	–	> 100
CCOP(=O)(OCC)C(C(=O)OC)C(=O)C(=O)Nc1ccc(Cl)cc1Cl (configuration not stated)	–	> 100
COc1cccc(/C=N/[N-]C(=O)c2ccncc2)c1[O-].COc1cccc(/C=N/[N-]C(=O)c2ccncc2)c1[O-].[O]=[U](=[O])([OH2+])[OH2+]	3910	22.1
CC(C)(C)c1ccc2c(c1)S(=O)(=O)Nc1ccc(Cl)cc1NS(=O)(=O)c1cc(C(C)(C)C)ccc1OCCOCCOCCO2	–	> 100
N#CC(=Nc1ccccc1N(C(=O)c1ccccc1)C(=O)c1ccccc1)c1ccccc1	–	> 100
COc1c(C)n(CCO)ccc1=O	–	> 100
COC(=O)C(=O)C(C(C)=O)C(=O)NCc1ccc(OC)c(OC)c1 (configuration not stated)	–	> 100
Nc1c(-c2ccccc2-c2c(N)[n+]([O-])c3ccccc3[n+]2[O-])[n+]([O-])c2ccccc2[n+]1[O-]	–	> 100
CCOC(=O)NC(=O)c1cn(C(CC)COC(=O)NCCCCCCNC(=O)OCC(CC)n2cc(C(=O)NC(=O)OCC)c(=O)[nH]c2=O)c(=O)[nH]c1=O (configuration not stated)	–	> 100
COc1ccc(-c2nc(-c3cc(OC)cc(OC)c3)[nH]c2-c2ccc(OC)cc2)cc1	6240	> 100
O=C(CC(=O)C1CCOC1=O)C(=O)Nc1cccc(Cl)c1 (configuration not stated)	–	> 100
CCN1c2ccccc2-c2c3c1cc(C)cc3c1ccccc1[n+]2CC	–	5.88
Cc1cccc(C2=C/C(=C(\SS/C(C(=O)c3ccc(OCC(=O)O)c(Cl)c3Cl)=C3\C=C(c4cccc(C)c4)SS3)C(=O)c3ccc(OCC(=O)O)c(Cl)c3Cl)SS2)c1	–	66.3

SMILES	GI50 [nM]	TGI [µM]
CC(=O)N1CCN(c2ccc(OCC3COC(Cn4ccnc4)(c4ccc(Cl)cc4Cl)O3)cc2)CC1 (configuration not stated)	–	> 100
O=C(Cc1nc2c3c(ccc2[nH]c1=O)C(=O)c1ccccc1C3=O)C(=O)Nc1ccccc1[N+](=O)[O-]	–	62.9
CC1=C(C#N)C(=O)CC(c2ccc(Cl)cc2)N(C)N1 (configuration not stated)	–	> 100
Nc1nc(-c2ccc(Cl)c([N+](=O)[O-])c2)cs1	–	> 100
COc1cc(/C=C2\[C@H]3c4c(c(OC)c(C)c(OC)c4OC)CC(C(=O)N2Cc2ccccc2)N3C)c(OC)c(C)c1OC	–	73.6
CC1(C)CN=C(NN=C(/C=C/c2ccc(C(F)(F)F)cc2)/C=C/c2ccc(C(F)(F)F)cc2)NC1	1090	2.37
COc1cc(/C=C\c2cc(OC)c(OC)c(OC)c2)cc(N/C=C\C(=O)c2c[nH]c3ccccc23)c1OC	1580	2.95
CCCCCCCCCCNC(=O)CI	1560	3.55
Cc1cc(N/N=C/c2ccccn2)nc2ccccc12	313	2.59
COC(=O)/C([Se]c1c(C)cc(C)cc1C)=C(/[Se]c1c(C)cc(C)cc1C)C(=O)OC	–	> 100
CC(C)(C)[Si](C)(C)OC1[C@@H](CNC(=O)NC(=O)CCl)O[C@@H](n2cnc3c(N)ncnc32)[C@H]1O[Si](C)(C)C(C)(C)C (some centres not stated)	1330	3.89
NC(=O)C(=O)CC(=O)c1ccccc1NC1=CC(=O)C(=O)c2ccccc21	–	> 100
COC(=O)/C(=N/O)C(C(=O)C=C(C)C)C(=O)C(=O)Nc1nc2ccc([N+](=O)[O-])cc2s1 (configuration not stated)	–	97
c1coc(-c2c3ccc(=[N+]4CCCCC4)cc-3oc3cc(N4CCCCC4)ccc23)c1	31.3	0.105
CCOC(=O)NC(=O)c1cn(C2CCCCC2)c(=O)[nH]c1=O	–	> 100
Cn1c(=O)nc2n(-c3cc(C(F)(F)F)cc(C(F)(F)F)c3)c3ccccc3nc-2c1=O	–	> 100

These molecules were tested on PC-3 prostate (assay: DTP human tumour cell line panel, 48 h).

SMILES	GI50 [nM]	TGI [µM]
CC(C)c1[nH]nc2c1N=C(c1ccccc1Cl)c1cc([N+](=O)[O-])ccc1N2	6700	> 25
COc1ccc(-c2nc(-c3cc(OC)cc(OC)c3)[nH]c2-c2ccc(OC)cc2)cc1	4000	> 100
COc1cc(/C=C\c2cc(OC)c(OC)c(OC)c2)cc(N/C=C\C(=O)c2c[nH]c3ccccc23)c1OC	3440	18.6
CCCCCCCCCCNC(=O)CI	1800	3.56
Cc1cc(N/N=C/c2ccccn2)nc2ccccc12	486	19.2
CC(C)(C)[Si](C)(C)OC1[C@@H](CNC(=O)NC(=O)CCl)O[C@@H](n2cnc3c(N)ncnc32)[C@H]1O[Si](C)(C)C(C)(C)C (some centres not stated)	942	2.05
c1coc(-c2c3ccc(=[N+]4CCCCC4)cc-3oc3cc(N4CCCCC4)ccc23)c1	70.2	1.06
